Here are results for four compounds from US20160271094A1, “Laquinimod Combination Therapy For Treatment Of Multiple Sclerosis” (priority 2013, published 2016).

Assay type in all cases: in vivo, mouse (C57BL/6)
The test system of test [1] is MOG induced EAE. Put plainly: Example 1C: suboptimal dose of laquinimod combined with MEF or EMF in MOG induced EAE. The note with it: for Group Mean Score / Incidence % inhibition / Incidence Total / Mean Disease Duration / Mean Maximal Score / Mean Onset days / Mortality Total % / GMS Inhibition % / MMS Inhibition %: study interrupted on day 21; for GMS Inhibition % / MMS Inhibition %: vs vehicle.

For test [2], the system named is MOG induced EAE. Put plainly: Example 1B: laquinimod in combination with DMF in MOG-induced EAE. Particulars: Day 1 to 30; for % Inhibition 2: according to MMS; for % Inhibition 2 / % Inhibition 1 / % Inhibition 3: vs vehicle; for % Inhibition 1: according to incidence; for % Inhibition 3: activity according to GMS; for GMS value: group mean score; for MMS value: mean maximal score.

For the next test, the system named is MOG-induced EAE. Put plainly: Example 1A: laquinimod alone or in combination with DMF in MOG-induced EAE (present tense).
Where [3] appears, read: MEF 90 mg/kg gavage twice a day from Day 1.
Setting [4] is: laquinimod 5 mg/kg/day gavage qd.
Where [5] appears, read: laquinimod 10 mg/kg/day gavage qd.
Where [6] appears, read: laquinimod 25 mg/kg/day gavage qd.
Where [7] appears, read: laquinimod 5 mg/kg/day gavage (AM) from Day 1.
The mark [8] stands for this setting: laquinimod 25 mg/kg/day gavage (AM) from Day 1, positive control.
Where [9] appears, read: DMF 45 mg/kg gavage bid (90 mg/kg/day).
Setting [10] is: EMF 135 mg/kg gavage twice a day from Day 1.
[11] abbreviates: EMF 135 mg/kg gavage twice a day from Day 1, listed as EFM.

Structures can show the parent of a compound that is named as a salt.

Regarding `CCOC(=O)/C=C/C(=O)O` [MEF, monoethyl fumarate], in the test with MOG induced EAE [1] (setting [3]), the “Group Mean Score” value is reported as 1.23 ± 0.2, the Incidence % inhibition was 20%, the “Incidence Total” value was 12/15 and the “Mean Disease Duration” value came out at 7.1 ± 1.0 days. For the same compound, in the test on MOG induced EAE [1] (setting [3]), the “Mean Maximal Score” value is recorded as 2.3 ± 0.38, the “Mean Onset days” value is 14.7 ± 1.0 days, the “Mortality Total %” value amounted to 0% and the “GMS Inhibition %” value came out at 26.8%. In addition, in the test with MOG induced EAE [1] (setting [3]), the “MMS Inhibition %” value is listed as −21.1%. In addition, the “alleviation of EAE disease signs (conclusion)” value in the test with MOG induced EAE [1] (MEF at 90 mg/kg) is reported as “not effective”. For the same compound, in the test on MOG induced EAE [1] (MEF 90 mg/kg gavage twice a day from Day 1, listed as Mono EF), the “GMS Inhibition %” value is −26.8%.
Turning to `CCN(C(=O)c1c(O)c2c(Cl)cccc2n(C)c1=O)c1ccccc1` [Laquinimod, laquinimod], in the test with MOG induced EAE [2] (setting [4]), the “% Inhibition 2” value turned out to be 40.0%, the “% Inhibition 1” value is on record as 33.3%, the “% Inhibition 3” value is recorded as 61.9% and the GMS value worked out at 0.8 ± 0.7. In the test with MOG induced EAE [2] (setting [4]), the Incidence is 10/15, the “Mean Duration” value came to 8.0 ± 6.2 days, the “Mean Onset” value was 22.7 ± 6.4 days and the Mortality is listed as 0/15. Moreover, the MMS value with MOG induced EAE [2] (setting [4]) worked out at 2.1 ± 1.7. In the test on MOG induced EAE [2] (setting [5]), the “% Inhibition 2” value was 82.9%, the “% Inhibition 1” value is 73.3%, the “% Inhibition 3” value came to 90.5% and the GMS value was 0.2 ± 0.5. In the test on MOG induced EAE [2] (setting [5]), the Incidence is given as 4/15, the “Mean Duration” value worked out at 1.8 ± 3.7 days, the “Mean Onset” value was found to be 28.9 ± 3.8 days and the Mortality was 0/15. Also, the MMS value with MOG induced EAE [2] (setting [5]) was 0.6 ± 0.2. In addition, in the test on MOG induced EAE [2] (setting [6]), the “% Inhibition 2” value was 100.0%, the “% Inhibition 1” value was 100.0%, the “% Inhibition 3” value stood at 100% and the GMS value worked out at 0.0 ± 0.0. In the test with MOG induced EAE [2] (setting [6]), the Incidence was 0/15, the “Mean Duration” value is 0.0 ± 0.0 days, the “Mean Onset” value was 0.0 ± 0.0 days and the Mortality was 0/15. Besides, the MMS value in the test on MOG induced EAE [2] (setting [6]) is 0.0 ± 0.0. In addition, in the test with MOG induced EAE [1] (setting [7]), the “Group Mean Score” value is 0.64 ± 0.2, the Incidence % inhibition worked out at 46.7%, the “Incidence Total” value is listed as 8/15 and the “Mean Disease Duration” value was 4.0 ± 1.2 days. In addition, in the test with MOG induced EAE [1] (setting [7]), the “Mean Maximal Score” value came to 1.3 ± 0.4, the “Mean Onset days” value is 17.3 ± 1.24 days, the “Mortality Total %” value was determined as 0% and the “GMS Inhibition %” value was found to be 34.0%. In addition, in the test with MOG induced EAE [1] (setting [7]), the “MMS Inhibition %” value was found to be 31.6%. Moreover, in the test with MOG induced EAE [1] (setting [8]), the Incidence % inhibition is reported as 93.3%, the “Incidence Total” value is given as 1/15, the “Mean Disease Duration” value is 0.3 ± 0.3 days and the “Mean Maximal Score” value was found to be 0.1 ± 0.06. In addition, in the test with MOG induced EAE [1] (setting [8]), the “Mean Onset days” value is listed as 21.5 ± 0.5 days, the “Mortality Total %” value came to 0%, the “GMS Inhibition %” value worked out at 97.9% and the “MMS Inhibition %” value came out at 94.7%. The “EAE clinical signs (conclusion)” value in the test with MOG induced EAE [1] (laquinimod at 25 mg/kg) is reported as “significantly ameliorated EAE clinical signs”. The “efficacy in MOG-induced EAE (conclusion)” value in the test with MOG induced EAE [1] (laquinimod at 5 and 25 mg/kg) is given as “dose-dependent efficacy”. The “inhibition of disease severity” value with MOG-induced EAE (laquinimod 0.06 mg/kg oral QD alone) is given as “moderately effective”.
As for `COC(=O)/C=C/C(=O)OC` [DMF, dimethyl fumarate], in the test on MOG induced EAE [2] (setting [9]), the Incidence was 13/15, the “Mean Duration” value is 13.4 ± 6.2 days, the “Mean Onset” value stood at 17.1 ± 6.3 days and the Mortality is 0/15. Also, in the test on MOG induced EAE [2] (setting [9]), the “% Inhibition 2” value is listed as 25.7%, the “% Inhibition 1” value is given as 13.3%, the “% Inhibition 3” value was 33.3% and the GMS value turned out to be 1.4 ± 0.9. For the same compound, the MMS value in the test on MOG induced EAE [2] (setting [9]) worked out at 2.6 ± 1.4. The “inhibition of disease severity” value in the test on MOG-induced EAE (DMF 25 mg/kg oral QD alone) is “moderately effective”.
As for `CCOC(=O)/C=C/C(=O)OC` [EMF, ethyl methyl fumarate], in the test on MOG induced EAE [1] (setting [10]), the “Group Mean Score” value is 0.51 ± 0.2, the Incidence % inhibition was 46.6%, the “Incidence Total” value was 8/15 and the “Mean Disease Duration” value was 3.3 ± 0.9 days. Also, in the test on MOG induced EAE [1] (setting [10]), the “Mean Maximal Score” value was 1.2 ± 0.38, the “Mean Onset days” value was found to be 18.4 ± 1.0 days, the “Mortality Total %” value came out at 0% and the “GMS Inhibition %” value is 47.7%. The “MMS Inhibition %” value with MOG induced EAE [1] (setting [10]) turned out to be 36.8%. Further, in the test on MOG induced EAE [1] (setting [11]), the Incidence % inhibition was 46.7% and the “GMS Inhibition %” value came to 47.4%. Further, in the test on MOG induced EAE [1] (EMF at 135 mg/kg BID alone), the “effectiveness in MOG induced EAE (conclusion)” value was “highly effective”.
